Consider three molecules from patent US20250268938A1, “SMALL MOLECULE-REGULATED CELL SIGNALING EXPRESSION SYSTEM” (Outpace Bio, Inc., priority 2021, published 2025).

For assay [1], the system named is primary human CD4+/CD8+ T cells. Put plainly: Kill switch percent killing in primary human T cells. The class given is cell-based. As to conditions: 10 nM rimiducid, range of transduction levels. On the procedure:
Pre-selected, cryopreserved primary human CD4 T cells from normal donors were obtained from Bloodworks (Seattle WA). Human T cells were cultured in OpTmizer medium (Thermo Fisher) supplemented with Immune Cell Serum Replacement (Thermo Fisher), 2 mM L-glutamine (Gibco), 2 mM Glutamax (Gibco), 200 IU/ml IL-2 (R&D systems), 120 IU/ml IL-7 (R&D systems), and 20 IU/ml IL-15 (R&D systems).
For lentiviral transduction, T cells were stimulated with a 1:100 dilution of T cell TransAct (Miltenyi) for 30 hours. Virus was then added to T cells for 18-24 hours. […]
Flow cytometry was performed on a Ze5 cytometer (Biorad). […] After staining, cells were washed once with Annexin V Binding Buffer, resuspended in AnneinV Binding Buffer and immediately analyzed.
(§1) Flow cytometry data was analyzed using FlowJo 10 (Tree Star). Percent killing was calculated by gating on live cells, then calculating 100*((percent GFP positive DMSO condition)−(percent GFP positive drug condition))/(percent GFP positive DMSO condition).
We explored the ability of other human killing domains to induce cell death in Jurkat and primary human T cells. […] Briefly, Jurkat and primary human CD4+/CD8+ T cells expressing FKBP(F36V)-fused killing domains were treated with 10 nM rimiducid and cell death was measured by percent killing as described herein above.

For the next assay, the system named is Jurkat cells. Nature of the assay: Kill switch percent killing in Jurkat cells (flow cytometry). To be noted: Jurkat cells; 10 nM rimiducid; range of transduction levels. The class given is cell-based. On the procedure: Kill switch-positive cells (le5) were incubated for 24-48 hours with inducer drug before staining and analysis for death. Conditions were normalized to contain about 50% transduction positive (+) cells by adding untransduced Jurkat or primary T cells in order to get accurate statistics on death.
Flow cytometry was performed on a Ze5 cytometer (Biorad). To determine expression of markers, between 1×10^5-2×10^5 total cells were transferred to a U-bottom 96 well culture dish (Corning). Cells were washed twice with Cell Staining Buffer (BioLegend), then stained with Zombie Violet (1:1000, BioLegend) and ROR1-FC for ROR1-specific CAR constructs (20 min at room temperature). Cells were washed twice in Cell Staining Buffer, then stained with Annexin V-PE (BD) in 1× Annexin V Binding Buffer (BD) for 15 min at room temperature. After staining, cells were washed once with Annexin V Binding Buffer, resuspended in AnneinV Binding Buffer and immediately analyzed.
as §1
We first tested for drug-induced death of Jurkat cells by fusing NS3a and DNCR2 separately to the catalytic domain of caspase-9 (NCDC). The small molecule inducible homodimer FKBP-F36V (iCasp9), which is dimerized by AP1903 (rimiducid) and the inducible heterodimer FKBP/rapamycin/FRB dimer (rapaCasp9) were used as controls. Briefly, Jurkat cells expressing NCDC, iCasp9, or rapaCasp9 were exposed to danoprevir, rimiducid or rapamycin, respectively, for 24 hours and analyzed by flow cytometry with gating set to measure killing in the top about 10% of cells expressing the highest amount of the GFP kill switch transduction marker.
To evaluate the kill switch designs of FIG. 8A, constructs were expressed in Jurkat cells, treated with 500 nM danoprevir (DNCR2-casp-9) or 500 nM grazoprevir (GNCR1-casp-9) and cell death measured by percent killing as described herein above.
The miniaturized versions of DNCR2, D1 and D9, were fused to caspase-9 and co-expressed in Jurkat cells with homo-oligomerized NS3a scaffolds. We also evaluated a CAR construct that included an additional copy of NS3a (CAR-2×NS3a). The original DNCR2-casp-9 was used as a control. Jurkat cells expressing different DNCR2 variants fused to caspase-9 along with CAR-NS3a, CAR-NS3a-NS3a, or dimer-NS3a were treated with 500 nM danoprevir and cell death was measured by percent killing as described herein above.
We explored the ability of other human killing domains to induce cell death in Jurkat and primary human T cells. We fused FKBP-F36V to a panel of killing domains that included caspase-9 D330A, caspase-9, caspase-1, caspase-4, and the necroptosis-inducing protein RIPK3. Briefly, Jurkat and primary human CD4+/CD8+ T cells expressing FKBP(F36V)-fused killing domains were treated with 10 nM rimiducid and cell death was measured by percent killing as described herein above.

Another assay deals with danoprevir/NS3a complex. As to conditions: cited from earlier work.
Assay [2] concerns CD69 expression in CAR expressing Jurkat cells. Nature of the assay: Induction of CD69 expression in CAR expressing Jurkat cells co-cultured with Jeko1 cells (flow cytometry). The class given is cell-based. To be noted: conventional single-chain ROR1-CAR Jurkat cells with Jeko1 cells; 500 nM danoprevir. The protocol:
NS3a-based regulated CARs were evaluated using lentiviral transduction of T cells and flow cytometry analysis. The CARs evaluated are specific for the ROR1 antigen expressed on the target cell line Jeko1. The Jurkat and Jeko1 cell lines were obtained from American Type Culture Collection (Manassas, VA) and maintained in RPMI 1640 media with Glutamax (Gibco) containing 10% fetal calf serum (Gibco). For lentiviral transduction, Jurkat cells were incubated with lentivirus in complete media plus LentiBOOST at the manufacturers recommended concentration (Sirion Biotech). Eighteen hours after transfection, lentivirus and LentiBOOST were diluted by addition of 1 volume fresh media.
For flow analysis of induction of CD69 expression, Jurkat cells were mixed 1:1 with Jeko1 cells or Jeko1-ROR1-KO cells. Drug was added to a final concentration of 500 nM. Cultures were incubated with drug for 24 hours before flow analysis for surface markers.
Flow cytometry of CAR experiments was performed on a Ze5 cytometer (Biorad). […] Flow cytometry data was analyzed using FlowJo 10 (Tree Star).
The three NS3a-based regulated CARs described hereinabove with reference to FIG. 1B were evaluated in the Jurkat cell line. […] CD69 expression, a T cell activation marker, was detected by flow cytometry, gating on live CD3+/ROR1+ cells.
For orientation: Flow cytometry measures light scatter and fluorescence of single cells or particles in a stream.

As for “RIPK3: FKBP-F36V fused to the necroptosis-inducing protein RIPK3”, the “percent killing, FKBP(F36V)-fused killing domains” value (in assay [1]; in the assay with Jurkat cells) was “not able to induce cell death” throughout. Regarding “DNCR2: danoprevir/NS3 complex reader polypeptide (SSDEEEARELIERAKEAAERAQEAAERTGDPRVRELARELKRLAQEAAEEVKRDPSSSD)”, the “affinity for the danoprevir/NS3a complex” value in the assay on danoprevir/NS3a complex is “high affinity”.

B1: Conventional CAR: conventional, single-chain ROR1-CAR (protein)
chain: CPPCPMFWVLVVVGGVLACYSLLVTVAFIIFWVKRGRKKLLYIFKQPFMRPVQTTQEEDGCSCRFPEEEEGGCELRVKFSRSADAPAYQQGQNQLYNELNLGRREEYDVLDKRRGRDPEMGGKPRRKNPQEGLYNELQKDKMAEAYSEIGMKGERRRGKGHDGLYQGLSTATKDTYDALHMQALPPR
As to B1, the “CD69 expression, regulation in response to danoprevir” value in assay [2] was “no significant regulation”.
